Data published in patent US10174037B2, “Dihydropyrazolopyrimidinone compounds as PDE2 inhibitors” (Merck Sharp & Dohme Corp., priority 2015, dated 2019).
Where two headings read alike, the source gives them in different places.

What was measured:
Rhesus PDE2A3 = Rhesus PDE2A3 (Macaca mulatta, UniProt B3VTJ2); experiment: PDE2 fluorescence polarization (IMAP FP) assay, rhesus PDE2A3; type: biochemical, rhesus macaque
human PDE2A1 = human PDE2A1 (Homo sapiens (Human), UniProt O00408); experiment: PDE selectivity IMAP FP assay, human PDE2A1; type: biochemical; details: Human PDE2
human PDE2A1, sequence (O00408 other isoform, or with tags, fused parts or gaps): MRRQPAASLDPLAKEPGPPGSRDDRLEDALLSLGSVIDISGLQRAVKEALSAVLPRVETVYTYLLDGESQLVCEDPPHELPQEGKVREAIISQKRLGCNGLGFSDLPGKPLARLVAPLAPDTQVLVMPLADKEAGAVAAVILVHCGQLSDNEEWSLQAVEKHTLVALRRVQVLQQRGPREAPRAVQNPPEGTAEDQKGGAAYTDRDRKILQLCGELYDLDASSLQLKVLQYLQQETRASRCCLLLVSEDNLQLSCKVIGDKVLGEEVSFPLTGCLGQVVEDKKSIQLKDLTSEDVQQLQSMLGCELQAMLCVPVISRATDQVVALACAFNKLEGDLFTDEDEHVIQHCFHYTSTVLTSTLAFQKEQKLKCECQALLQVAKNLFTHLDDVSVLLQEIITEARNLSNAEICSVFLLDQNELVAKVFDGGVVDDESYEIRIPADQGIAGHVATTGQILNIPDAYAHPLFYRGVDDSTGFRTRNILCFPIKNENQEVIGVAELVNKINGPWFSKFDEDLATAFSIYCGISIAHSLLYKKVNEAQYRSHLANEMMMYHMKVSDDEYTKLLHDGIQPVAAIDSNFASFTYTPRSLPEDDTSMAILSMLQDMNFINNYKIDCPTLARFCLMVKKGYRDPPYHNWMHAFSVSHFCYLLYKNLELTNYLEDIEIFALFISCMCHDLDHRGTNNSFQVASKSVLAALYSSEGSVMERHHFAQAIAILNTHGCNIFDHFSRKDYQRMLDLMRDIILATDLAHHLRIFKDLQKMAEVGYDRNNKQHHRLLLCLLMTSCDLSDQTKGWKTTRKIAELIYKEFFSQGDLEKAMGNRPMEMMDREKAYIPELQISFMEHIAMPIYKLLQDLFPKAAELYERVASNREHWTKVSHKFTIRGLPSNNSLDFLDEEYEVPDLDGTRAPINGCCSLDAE
Method in brief: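 IMAP fluorescence polarization assay; PDE2 substrate 50 nM FAM-cAMP containing 1000 nM cGMP, enzyme diluted for 20% substrate conversion, in 10 mM Tris HCl pH 7.2, 10 mM MgCl2, 1 mM DTT. Reaction 60 min at room temperature, stopped with IMAP binding solution; polarization read after 1 h. Ki reported.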

[1] = Lab B, read-out: Rhesus PDE2 Ki (nM) Lab B
[2] = Lab B, read-out: Human PDE2 Ki (nM) Lab B
[3] = Lab A, read-out: Rhesus PDE2 Ki (nM) Lab A
[4] = Lab A, read-out: Human PDE2 Ki (nM) Lab A

Rhesus PDE2A3, sequence (B3VTJ2 1-941): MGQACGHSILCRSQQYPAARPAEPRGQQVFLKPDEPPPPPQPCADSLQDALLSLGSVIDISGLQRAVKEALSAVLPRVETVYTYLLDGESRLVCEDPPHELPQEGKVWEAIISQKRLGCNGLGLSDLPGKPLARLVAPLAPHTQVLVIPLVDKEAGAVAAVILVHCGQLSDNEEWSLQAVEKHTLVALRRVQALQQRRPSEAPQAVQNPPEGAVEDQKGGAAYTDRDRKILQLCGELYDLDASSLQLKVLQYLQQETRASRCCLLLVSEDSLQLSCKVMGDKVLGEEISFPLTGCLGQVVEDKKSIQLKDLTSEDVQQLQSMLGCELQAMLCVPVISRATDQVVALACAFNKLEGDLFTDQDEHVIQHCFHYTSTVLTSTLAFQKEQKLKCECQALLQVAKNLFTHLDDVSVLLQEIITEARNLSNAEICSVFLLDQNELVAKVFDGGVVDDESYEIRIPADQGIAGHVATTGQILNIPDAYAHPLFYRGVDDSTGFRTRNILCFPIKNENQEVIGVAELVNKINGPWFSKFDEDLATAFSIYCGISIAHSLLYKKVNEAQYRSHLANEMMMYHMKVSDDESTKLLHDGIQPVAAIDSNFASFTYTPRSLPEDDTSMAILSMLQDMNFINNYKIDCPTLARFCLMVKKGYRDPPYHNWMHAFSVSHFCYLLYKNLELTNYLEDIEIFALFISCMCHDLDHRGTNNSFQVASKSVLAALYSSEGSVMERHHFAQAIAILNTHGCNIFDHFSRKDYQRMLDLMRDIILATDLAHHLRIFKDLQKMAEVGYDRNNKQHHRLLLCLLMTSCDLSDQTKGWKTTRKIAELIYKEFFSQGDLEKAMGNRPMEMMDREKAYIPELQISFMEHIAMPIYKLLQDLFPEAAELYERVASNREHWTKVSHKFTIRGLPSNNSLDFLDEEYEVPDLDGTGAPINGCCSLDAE

Row | SMILES | Ki (Rhesus PDE2A3; [1]) [nM] | Ki (human PDE2A1; [2]) [nM] | Ki (Rhesus PDE2A3; [3]) [nM] | Ki (human PDE2A1; [4]) [nM]
1 | CC(C)C(c1ccc(C(F)F)c(F)c1)n1nc(CO)c2c(=O)[nH]c(N(C)C)nc21 (single isomer, unassigned) [Example 114] | 0.71 | 0.79 |  | 
2 | N#CCc1nn(C(c2ccc(C(F)(F)F)cc2)C2CC2)c2nc(O)[nH]c(=O)c12 (single isomer, unassigned) [Example 296] | 8.6 | 7.3 |  | 
3 | CN(C)c1nc2c(c(CO)nn2C(c2ccc(OC(F)F)cc2)C2CC2)c(=O)[nH]1 (single isomer, unassigned) [Example 129, (S)- or (R)-(Cyclopropyl(4-(difluoromethoxy)phenyl)methyl)-6-(dimethylamino)-3-(hydroxymethyl)-1H-pyrazolo[3,4-d]pyrimidin-4(5H)-one] | 1 | 0.55 |  | 
4 | CCC(c1ccc(C(F)(F)F)c(F)c1)n1nc(CO)c2c(=O)[nH]c(N(C)C)nc21 (single isomer, unassigned) [Example 145, (S)- or (R)-6-(Dimethylamino)-1-(1-(3-fluoro-4-(trifluoromethyl)phenyl)propyl)-3-(hydroxymethyl)-1H-pyrazolo[3,4-d]pyrimidin-4(5H)-one] | 0.13 | 0.11 |  | 
5 | CC(C)C(c1ccc(C(F)(F)F)cc1F)n1nc(CO)c2c(=O)[nH]c(N(C)C)nc21 (single isomer, unassigned) [Example 132, (R)- or (S)-6-(Dimethylamino)-1-(1-(2-fluoro-4-(trifluoromethyl)phenyl)-2-methylpropyl)-3-(hydroxymethyl)-1H-pyrazolo[3,4-d]pyrimidin-4(5H)-one] | 0.059 | 0.04 |  | 
6 | CC(C)C(c1ccc(C(F)(F)F)cc1F)n1nc(CF)c2c(=O)[nH]c(N(C)C)nc21 (single isomer, unassigned) [Example 200, (R)- or (S)-6-(Dimethylamino)-1-(1-(2-fluoro-4-(trifluoromethyl)phenyl)-2-methylpropyl)-3-(fluoromethyl)-1H-pyrazolo[3,4-d]pyrimidin-4(5H)-one] | 0.07 | 0.041 |  | 
7 | CC(c1ccc(CC(F)(F)F)cc1)n1nc(CO)c2c(=O)[nH]c(N(C)C)nc21 (single isomer, unassigned) [Example 71, (S)- or (R)-6-(Dimethylamino)-3-(hydroxymethyl)-1-(1-(4-(2,2,2-trifluoroethyl)phenyl)ethyl)-1H-pyrazolo[3,4-d]pyrimidin-4(5H)-one] | 0.95 | 0.75 |  | 
8 | CC(c1ccc(C(F)(F)F)cc1)n1nc(C(F)(F)C(F)(F)F)c2c(=O)[nH]c(O)nc21 (single isomer, unassigned) [Example 266, (R)- or (S)-6-Hydroxy-3-(perfluoroethyl)-1-(1-(4-(trifluoromethyl)phenyl)ethyl)-1H-pyrazolo[3,4-d]pyrimidin-4(5H)-one] | 14 | 13 |  | 
9 | Cc1ccc(C(C)n2nc(CCl)c3c(=O)[nH]c(O)nc32)cc1 (stereo not shown) [Example 57, 3-(Chloromethyl)-6-hydroxy-1-(1-p-tolylethyl)-1H-pyrazolo[3,4-d]pyrimidin-4(5H)-one] | 40 | 28 | 26 | 11
10 | CC(C)C(c1ccc(C(F)(F)F)c(F)c1)n1nc(CF)c2c(=O)[nH]c(O)nc21 (single isomer, unassigned) [Example 55] | 1.3 | 0.96 |  | 
11 | O=c1[nH]c(O)nc2c1c(CO)nn2C(CF)c1ccc(C(F)(F)F)cc1 (stereo not shown) [Example 33, 1-(2-Fluoro-1-(4-(trifluoromethyl)phenyl)ethyl)-6-hydroxy-3-(hydroxymethyl)-1H-pyrazolo[3,4-d]pyrimidin-4(5H)-one] | 50 | 71 |  | 
12 | CC(c1ccc(OC(F)(F)F)c(F)c1)n1nc(C(F)F)c2c(=O)[nH]c(O)nc21 (single isomer, unassigned) [Example 288, (S)- or (R)-3-(Difluoromethyl)-1-(1-(3-fluoro-4-(trifluoromethoxy)phenyl)ethyl)-6-hydroxy-1H-pyrazolo[3,4-d]pyrimidin-4(5H)-one] | 1.6 | 2.4 |  | 
13 | CN(C)c1nc2c(c(CO)nn2C(c2ccc(C(F)(F)F)c(F)c2)C2CC2)c(=O)[nH]1 (single isomer, unassigned) [Example 151, (S)- or (R)-1-(Cyclopropyl(3-fluoro-4-(trifluoromethyl)phenyl)methyl)-6-(dimethylamino)-3-(hydroxymethyl)-1H-pyrazolo[3,4-d]pyrimidin-4(5H)-one] | 0.79 | 0.61 |  | 
14 | CC(c1ccc(OC(F)(F)F)c(F)c1)n1nc(CF)c2c(=O)[nH]c(N(C)C)nc21 (single isomer, unassigned) [Example 167, (S)- or (R)-6-(Dimethylamino)-1-(1-(3-fluoro-4-(trifluoromethoxy)phenyl)ethyl)-3-(fluoromethyl)-1H-pyrazolo[3,4-d]pyrimidin-4(5H)-one] | 0.18 | 0.2 |  | 
15 | CC(c1ccc(S(F)(F)(F)(F)F)cc1)n1nc(CC(F)(F)F)c2c(=O)[nH]c(O)nc21 (racemic) [Example 231, 6-Hydroxy-3-(2,2,2-trifluoroethyl)-1-(1-(4-(pentafluorosulfanyl)phenyl)ethyl)-1H-pyrazolo[3,4-d]pyrimidin-4(5H)-one] | 25 | 18 |  | 
16 | CC(c1ccc(C(F)(F)F)cc1)n1nc(CF)c2c(=O)[nH]c(O)nc21 (stereo not shown) [Example 41, 3-(Fluoromethyl)-6-hydroxy-1-{1-[4-(trifluoromethyl)phenyl]ethyl}-1,5-dihydro-4H-pyrazolo[3,4-d]pyrimidin-4-one] |  |  | 3.5 | 2.3
17 | CC(C)C(c1ccc(OC(F)F)cc1)n1nc(CO)c2c(=O)[nH]c(N(C)C)nc21 (single isomer, unassigned) [Example 121] | 0.31 | 0.34 |  | 
18 | Cc1ccc(C(C)n2nc(CF)c3c(=O)[nH]c(O)nc32)cc1 (stereo not shown) [Example 37, 3-(Fluoromethyl)-6-hydroxy-1-(1-p-tolylethyl)-1H-pyrazolo[3,4-d]pyrimidin-4(5H)-one] |  |  | 85 | 44
19 | CC(c1ccc(OC(F)(F)F)cc1)n1nc(CF)c2c(=O)[nH]c(O)nc21 (stereo not shown) [Example 36, 3-(Fluoromethvl)-6-hydroxy-1-(1-(4-(trifluoromethoxy)phenyl)ethyl)-1H-pyrazolo[3,4-d]pyrimidin-4(5H)-one] | 18 | 17 | 11 | 6.5
20 | CC(C)C(c1ccc(C(F)(F)F)cc1)n1nc(CF)c2c(=O)[nH]c(O)nc21 (stereo not shown) [Example 40, 3-(Fluoromethyl)-6-hydroxy-1-(2-methyl-1-(4-(trifluoromethyl)phenyl)propyl)-1H-pyrazolo[3,4-d]pyrimidin-4(5H)-one] | 2 | 2.1 | 1.7 | 0.56
21 | CC(C)C(c1ccc(OC(F)F)cc1)n1nc(CO)c2c(=O)[nH]c(N(C)C)nc21 (single isomer, unassigned) [Example 120] | 0.28 | 0.21 |  | 
22 | CC(C)C(c1ccc(OC(F)F)cc1)n1nc(CF)c2c(=O)[nH]c(N(C)C)nc21 (single isomer, unassigned) [Example 185, (S)- or (R)-1-(1-(4-(Difluoromethoxy)phenyl)-2-methylpropyl)-6-(dimethylamino)-3-(fluoromethyl)-1H-pyrazolo[3,4-d]pyrimidin-4(5H)-one] | 0.16 | 0.12 |  | 
23 | CC(c1ccc(OC(F)(F)F)cc1)n1nc(CC(F)(F)F)c2c(=O)[nH]c(O)nc21 (racemic) [Example 230, 6-Hydroxy-3-(2,2,2-trifluoroethyl)-1-(1-(4-(trifluoromethoxy)phenyl)ethyl)-1H-pyrazolo[3,4-d]pyrimidin-4(5H)-one] | 21 | 13 |  | 
24 | CN(C)c1nc2c(c(CO)nn2C(c2ccc(CC(F)(F)F)cc2)C2CC2)c(=O)[nH]1 (single isomer, unassigned) [Example 86, (R)- or (S)-1-(Cyclopropyl(4-(2,2,2-trifluoroethyl)phenyl)methyl)-6-(dimethylamino)-3-(hydroxymethyl)-1H-pyrazolo[3,4-d]pyrimidin-4(5H)-one] | 0.91 | 0.57 |  | 
25 | CC(c1ccc(C(F)(F)F)cc1)n1nc(CC(F)(F)F)c2c(=O)[nH]c(O)nc21 (single isomer, unassigned) [Example 257, (S)- or (R)-6-Hydroxy-3-(2,2,2-trifluoroethyl)-1-{1-(4-(trifluoromethyl)phenyl]ethyl}-1,5-dihydro-4H-pyrazolo[3,4-d]pyrimidin-4-one] | 1.5 | 2 | 0.96 | 0.68
26 | O=c1[nH]c(O)nc2c1c(CO)nn2C1(c2ccc(C(F)(F)F)cc2)CCC1 [Example 26, 6-Hydroxy-3-(hydroxymethyl)-1-(1-(4-(trifluoromethyl)phenyl)cyclobutyl)-1H-pyrazolo[3,4-d]pyrimidin-4(5H)-one] | 50 | 39 |  | 
27 | C[C@@H](c1ccc(C(F)(F)F)cc1)n1nc(CO)c2c(=O)[nH]c(N(C)C)nc21 [Example 154, (S)-6-(Dimethylamino)-3-(hydroxymethyl)-1-(1-(4-(trifluoromethyl)phenyl)ethyl)-1H-pyrazolo[3,4-d]pyrimidin-4(5H)-one] | 0.57 | 0.55 |  | 
28 | CC(C)c1ccc(C(C2CC2)n2nc(CF)c3c(=O)[nH]c(N(C)C)nc32)cc1 (single isomer, unassigned) [Example 183, (R)- or (S)-1-(Cyclopropyl(4-isopropylphenyl)methyl)-6-(dimethylamino)-3-(fluoromethyl)-1H-pyrazolo[3,4-d]pyrimidin-4(5H)-one] | 0.082 | 0.064 |  | 
